Assay results taken from ChEMBL document CHEMBL1135111, “Antifungal sordarins. part 3: synthesis and structure-activity relationships of 2',3'-fused oxirane derivatives” (Bioorg Med Chem Lett, 2002).
≈ marks a conversion by molar mass, not a printed value.

How the values were obtained:
Kluyveromyces marxianus = experiment: Compound was evaluated for antifungal activity as minimum cell growth inhibition against Candida pseudotropicalis -2371; assay type: functional, candida pseudotrop
Nakaseomyces glabratus = experiment: Compound was evaluated for antifungal activity as minimum cell growth inhibition against Candida glabrata - 2375E; assay type: functional
Candida tropicalis = experiment: Compound was evaluated for antifungal activity as minimum cell growth inhibition against Candida tropicalis - 2808; assay type: functional
Candida albicans [1] = experiment: Compound was evaluated for antifungal activity as minimum cell growth inhibition against Candida albicans - 4711E; assay type: functional
Candida albicans [2] = experiment: Compound was evaluated for antifungal activity as minimum cell growth inhibition against Candida albicans - 2005; assay type: functional
Cryptococcus neoformans = experiment: Compound was evaluated for antifungal activity as minimum cell growth inhibition against Cryptococcus neoformans - 2867; assay type: functional

Row | Structure (SMILES) | MIC (Kluyveromyces marxianus) [µg/mL] | MIC (Nakaseomyces glabratus) [µg/mL] | MIC (Candida tropicalis) [µg/mL] | MIC (Candida albicans [1]) [µg/mL] | MIC (Candida albicans [2]) [µg/mL] | MIC (Cryptococcus neoformans) [µg/mL]
1 | COC[C@H]1O[C@@H](OCC23C[C@@H]4[C@H](C)CC[C@H]4C4(C=O)CC2C=C(C(C)C)C34C(=O)O)[C@H]2O[C@H]2[C@@H]1OC (some centres not stated) | 0.25 (≈ 0.495 µM) | 62 (≈ 123 µM) | 4 (≈ 7.93 µM) | 0.5 (≈ 0.991 µM) | 0.06 (≈ 0.119 µM) | 16 (≈ 31.7 µM)
2 | CO[C@H]1[C@@H]2O[C@@H]2[C@@H](OCC23C[C@@H]4[C@H](C)CC[C@H]4C4(C=O)CC2C=C(C(C)C)C34C(=O)O)O[C@@H]1C (some centres not stated) | 1 (≈ 2.11 µM) | 31 (≈ 65.3 µM) | 31 (≈ 65.3 µM) | 8 (≈ 16.9 µM) | 4 (≈ 8.43 µM) | > 125
3 | C/C=C/C=C(/O[C@H]1[C@H](O)[C@H](OCC23C[C@@H]4[C@H](C)CC[C@H]4C4(C=O)CC2C=C(C(C)C)C34C(=O)O)O[C@H](C)[C@H]1O)C(=O)C(CC)CC (some centres not stated) | 0.03 (≈ 0.0467 µM) | > 125 | 0.06 (≈ 0.0933 µM) | 0.25 (≈ 0.389 µM) | 0.015 (≈ 0.0233 µM) | 0.25 (≈ 0.389 µM)
4 | CO[C@H]1[C@@H]2O[C@@H]2[C@H](OCC23C[C@@H]4[C@H](C)CC[C@H]4C4(C=O)CC2C=C(C(C)C)C34C(=O)O)O[C@@H]1CO (some centres not stated) | 16 (≈ 32.6 µM) | > 125 | 31 (≈ 63.2 µM) | 16 (≈ 32.6 µM) | 4 (≈ 8.15 µM) | > 125
5 | CO[C@H]1[C@H]2O[C@H]2[C@H](OCC23C[C@@H]4[C@H](C)CC[C@H]4C4(C=O)CC2C=C(C(C)C)C34C(=O)O)O[C@@H]1C (some centres not stated) | 0.12 (≈ 0.253 µM) | 125 (≈ 263 µM) | 4 (≈ 8.43 µM) | – | 0.25 (≈ 0.527 µM) | > 125
6 | CO[C@H]1[C@@H]2O[C@@H]2[C@H](OCC23C[C@@H]4[C@H](C)CC[C@H]4C4(C=O)CC2C=C(C(C)C)C34C(=O)O)O[C@@H]1C (some centres not stated) | 0.03 (≈ 0.0632 µM) | 16 (≈ 33.7 µM) | 0.25 (≈ 0.527 µM) | 0.25 (≈ 0.527 µM) | 0.06 (≈ 0.126 µM) | 8 (≈ 16.9 µM)
7 | CO[C@H]1[C@@H]2S[C@@H]2[C@H](OCC23C[C@@H]4[C@H](C)CC[C@H]4C4(C=O)CC2C=C(C(C)C)C34C(=O)O)O[C@@H]1C (some centres not stated) | 0.008 (≈ 0.0163 µM) | 16 (≈ 32.6 µM) | 0.5 (≈ 1.02 µM) | 0.12 (≈ 0.245 µM) | 0.03 (≈ 0.0611 µM) | > 125
8 | CO[C@H]1[C@H]2O[C@H]2[C@@H](OCC23C[C@@H]4[C@H](C)CC[C@H]4C4(C=O)CC2C=C(C(C)C)C34C(=O)O)O[C@@H]1C (some centres not stated) | 2 (≈ 4.21 µM) | 31 (≈ 65.3 µM) | > 125 | 16 (≈ 33.7 µM) | 4 (≈ 8.43 µM) | 125 (≈ 263 µM)
